Earlier results as cited in patent US6423697B1, “Intraoral topical anti-inflammatory treatment for relief of migraine, tension-type headache, post-traumatic headache, facial pain, and cervical-muscle spasm” (priority 1999, dated 2002).

Assays:
[1] = oral medication

Row | time to peak plasma levels (oral administration) [h] | plasma half-life (in vivo) [h] | time peak plasma levels are maintained (oral administration) [h] | Compound | effectiveness for headache [1]
1 | 0.5 to 2 | – | – | 2-(3benzoxyphenyl)-propionic acid [Ketoprofen] | –
2 | 1 to 2 | 4.7 to 9 | 4 to 6 | CC(=O)Oc1ccccc1C(=O)O [Aspirin, salicylic acetate] | mildly effective
3 | 1 to 2 | – | – | CC(C)Cc1ccc(C(C)C(=O)O)cc1 (centres unmarked) [Ibuprofen, 2-(p-Isobutylphenyl) propionic acid] | mildly effective
4 | – | – | – | COc1ccc2cc([C@H](C)C(=O)O)ccc2c1 [Naproxen, 6-methoxy methyl-2-naphtalene acetic acid] | mildly effective
